Key:
Rheb = Rheb (Homo sapiens (Human), UniProt Q15382); assay: Affinity Selection Mass Spectrometry (ASMS); format: binding; details: affinity (R3/R0) in Affinity Selection Mass Spectrometry assay
Procedure: Method 2 (Affinity Selection Mass Spectrometry
Protein: Rheb (19 KDa) in the following buffer: 20 mM Tris, pH 8.0, 200 mM NaCl, 2 mM DTT, 5 mM MgCl2 was prepared as under.
Human Rheb protein (I-169) was purified from BL21 (DE3) E. coli using a His-Smt-Rheb expression vector. The cell paste was lysed in lysis buffer (50 mM HEPES pH 7.5, 0.5 M NaCl, 5% Glycerol, 1% CHAPS, EDTA free protease inhibitor tablets, lysozyme to 1 mg/mL, benzonase 250U), sonicated, and purified on a HiTrap Ni Chelating Column (GE Healthcare) using the following buffer: 50 mM HEPES pH 7.5, 0.5 M NaCl, 5% Glycerol, and imidazole increasing in concentration from 5 mM to 500 mM. The His-Smt tag was cleaved using a U1p1 enzyme and dialyzed into 50 mM HEPES pH 7.5, 0.5 M NaCl, 5% Glycerol. The resultant protein was again purified on a Ni Chelating column to remove the U1p1 enzyme and His-Smt tag and then purified by size exclusion chromatography on a Sephacryl S-100 26/60 column into the following final buffer: 20 mM NaPhos pH 7.0, 100 mM NaCl, 5 mM MgCl2, 2 mM TCEP.
Concentrations: 60 μM Rheb, 180 μM GDP and 2 μM of each compound,
Ultrafiltration Filter (Sartorius, Germany) MW cutoff: 10 KDa
• (a) Sample preparation: Prepare sample for each group in 1.5 mL microcentrifuge tube according to the experimental design, total volume 550 μL. In a standard ASMS experiment there are two groups: Protein plus (P+L+) and protein minus (P−L+). • (b) Transfer 50 μL from the 550 μL to a vial as R0 sample. Incubate the rest solution for 30 min at room temperature. Then transfer the 500 μL into an ultrafiltration filter tube and centrifuge at 12×10^3 rpm for ˜10 min, leave about 50 μL solution (otherwise adjust this time). • (c) Add incubation buffer to the ultrafiltration filter tube to about 500 μL. Stir gently and centrifuge mixtures as above, leave about 50 μL solution. • (d) Repeat the step c. Transfer the remaining 50 μL upper layer solution to a new vial as R^3 sample. Sample Extraction: Add 150 μL MeCN to denature the protein completely. Centrifuge at 12×10^3 rpm for 5 min. Transfer the supernatant into LC-MS auto sampler vials for LC-MS analysis (5 uL injection).
Waters Acquity UPLC system, Waters ACQUITY UPLC BEH C18 column (2.1×50 mm, 1.7 μM); Mobile phase A: 0.1% formic acid solution, B: MeCN; 0.3 mL/min, 5 μL injection, gradient elution (Table 5).
Waters Synapt G1 Q-TOF system, positive or negative ion scan modes; Capillary voltage: 3.0 kV; Method: MSE; Mass range: m/z=100-1000; Source temperature: 120° C.; Desolvation temperature: 400° C.; Collision voltage: 35 V; Sampling Cone: 35 V; Extraction Cone: 4.0 V; Cone Gas: 50 L/h; Desolvation Gas: 800 L/h.

[1] = target: HA-GST-Rheb (GTP-γ-S loaded) activating mTORC1 (Homo sapiens (Human), UniProt Q15382); assay: Rheb-dependent in vitro kinase assay (Rheb-IVK; LanthaScreen or Western readout); format: biochemical; details: Rheb-dependent in vitro kinase assay; read-out: IVK IC50
Sequence of HA-GST-Rheb (GTP-γ-S loaded) activating mTORC1 (Q15382 1-181): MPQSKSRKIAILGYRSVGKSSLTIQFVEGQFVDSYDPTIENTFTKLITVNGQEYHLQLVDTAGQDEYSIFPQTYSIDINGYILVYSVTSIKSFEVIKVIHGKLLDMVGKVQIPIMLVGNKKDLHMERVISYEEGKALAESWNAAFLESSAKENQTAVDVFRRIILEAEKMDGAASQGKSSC

Sequence of Rheb (Q15382 1-169 limits assumed): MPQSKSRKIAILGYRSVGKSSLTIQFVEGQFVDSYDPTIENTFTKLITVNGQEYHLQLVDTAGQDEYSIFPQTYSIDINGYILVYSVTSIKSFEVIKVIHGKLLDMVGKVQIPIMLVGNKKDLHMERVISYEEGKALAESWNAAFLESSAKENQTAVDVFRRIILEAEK

SMILES: O=C(O)c1cc2c(Sc3ccc(Cl)cc3Cl)cc(Cl)cc2[nH]1 [I-157, 6-chloro-4-(2,4-dichlorophenylthio)-1H-indole-2-carboxylic acid]
- ASMS (R3/R0) (Rheb): B (an affinity (R3/R0) between 100% and 20%)
- IC50 [1]: < 10 µM

SMILES: CN1CCC[C@@H]1CNC(=O)c1cc2c(Br)cc(Sc3ccc(Cl)c(Cl)c3)cc2[nH]1 [I-57]
- ASMS (R3/R0) (Rheb): A (an affinity (R3/R0)>100%)
- IC50 [1]: > 100 µM

SMILES: CC(C)(C)OC(=O)N1CCN(C(=O)c2ccc(Cn3c(C(=O)O)cc4c(Br)cc(Oc5ccccc5)cc43)cc2)CC1 [I-62]
- ASMS (R3/R0) (Rheb): B (an affinity (R3/R0) between 100% and 20%)
- IC50 [1]: > 100 µM

SMILES: C[Si](C)(C)CC(O)c1cc2c(Oc3ccccc3)cc(Cl)cc2[nH]1 (stereo not shown) [I-159, 1-(6-chloro-4-phenoxy-1H-indol-2-yl)-2-(trimethylsilyl)ethanol]
- ASMS (R3/R0) (Rheb): C (an affinity (R3/R0)<20%)
- IC50 [1]: 10 to 100 µM

SMILES: Clc1ccc2[nH]c(-c3cnco3)cc2c1Oc1ccccc1 [I-256, 5-(5-chloro-4-phenoxy-1H-indol-2-yl)oxazole]
- ASMS (R3/R0) (Rheb): B (an affinity (R3/R0) between 100% and 20%)
- IC50 [1]: 10 to 100 µM

SMILES: O=C(NCCN1CCN(c2ccccc2)CC1)c1cc2c(Sc3ccc(Cl)cc3Cl)cc(Cl)cc2[nH]1 [I-119]
- ASMS (R3/R0) (Rheb): B (an affinity (R3/R0) between 100% and 20%)
- IC50 [1]: > 100 µM

SMILES: OCc1nc2cc(Cl)c(OCCc3ccc(Cl)cc3)cc2[nH]1 [I-380, (5-chloro-6-(4-chlorophenethoxy)-1H-benzo[d]imidazol-2-yl)methanol]
- ASMS (R3/R0) (Rheb): B (an affinity (R3/R0) between 100% and 20%)
- IC50 [1]: 10 to 100 µM

SMILES: O=C(O)c1nc2cc(OCc3ccc(Cl)cc3)c(Cl)cc2[nH]1 [I-343, 6-chloro-5-(4-chlorobenzyloxy)-1H-benzo[d]imidazole-2-carboxylic acid]
- ASMS (R3/R0) (Rheb): A (an affinity (R3/R0)>100%)
- IC50 [1]: 10 to 100 µM

SMILES: OCc1nc2cc(Cl)c(OCc3ccccc3)cc2n1Cc1ccc(-c2nnn[nH]2)cc1 [I-440, (1-(4-(1H-tetrazol-5-yl)benzyl)-6-(benzyloxy)-5-chloro-1H-benzo[d]imidazol-2-yl)methanol]
- ASMS (R3/R0) (Rheb): C (an affinity (R3/R0)<20%)
- IC50 [1]: 10 to 100 µM

SMILES: Clc1ccc(Oc2cccc3[nH]ccc23)c(Cl)c1 [I-255, 4-(2,4-Dichlorophenoxy)-1H-indole]
- ASMS (R3/R0) (Rheb): B (an affinity (R3/R0) between 100% and 20%)
- IC50 [1]: 10 to 100 µM

SMILES: COc1ccc(COc2cc3nc(CO)[nH]c3c(Cl)c2Cl)cc1 [I-328]
- ASMS (R3/R0) (Rheb): B (an affinity (R3/R0) between 100% and 20%)
- IC50 [1]: > 100 µM

SMILES: O=C(O)c1cc2cc(SCc3ccc(Cl)cc3)c(Cl)cc2[nH]1 [I-85, 6-chloro-5-(4-chlorobenzylthio)-1H-indole-2-carboxylic acid]
- ASMS (R3/R0) (Rheb): B (an affinity (R3/R0) between 100% and 20%)
- IC50 [1]: 10 to 100 µM

SMILES: O=C(O)c1cc2c(Oc3cc(Cl)ccc3Cl)cc(Cl)cc2[nH]1 [I-172, 6-Chloro-4-(2,5-dichlorophenoxy)-1H-indole-2-carboxylic acid]
- ASMS (R3/R0) (Rheb): B (an affinity (R3/R0) between 100% and 20%)
- IC50 [1]: 10 to 100 µM

SMILES: CN(CCO)C(=O)c1ccc(Cn2c(C(=O)O)cc3c(Br)cc(Oc4ccccc4)cc32)cc1 [I-69, 4-bromo-1-(4-((2-hydroxyethyl)(methyl)carbamoyl)benzyl)-6-phenoxy-1H-indole-2-carboxylic acid]
- ASMS (R3/R0) (Rheb): C (an affinity (R3/R0)<20%)
- IC50 [1]: 10 to 100 µM

SMILES: Cn1ccc2c(Oc3ccccc3F)cccc21 [I-267]
- ASMS (R3/R0) (Rheb): C (an affinity (R3/R0)<20%)
- IC50 [1]: > 3 µM

SMILES: O=C(O)c1cc2c(Sc3ccc(Cl)cc3Cl)cc(Cl)c(Cl)c2[nH]1 [I-45, 6,7-dichloro-4-(2,4-dichlorophenylthio)-1H-indole-2-carboxylic acid]
- ASMS (R3/R0) (Rheb): A (an affinity (R3/R0)>100%)
- IC50 [1]: < 10 µM

SMILES: CC(C)(C)OC(=O)c1ccc(Cn2c(C(=O)O)cc3c(Cl)cc(Sc4ccc(Cl)c(Cl)c4)cc32)cc1 [I-95, 1-(4-(tert-butoxycarbonyl)benzyl)-4-chloro-6-(3,4-dichlorophenylthio)-1H-indole-2-carboxylic acid]
- ASMS (R3/R0) (Rheb): B (an affinity (R3/R0) between 100% and 20%)
- IC50 [1]: 10 to 100 µM

SMILES: Clc1ccc(Sc2cccc3[nH]ccc23)c(Cl)c1 [I-212]
- ASMS (R3/R0) (Rheb): B (an affinity (R3/R0) between 100% and 20%)
- IC50 [1]: > 3 µM

SMILES: O=C(O)c1cc2c(Sc3ccc(Br)cc3)cc(Cl)cc2[nH]1 [I-98, 4-(4-bromophenylthio)-6-chloro-1H-indole-2-carboxylic acid]
- ASMS (R3/R0) (Rheb): B (an affinity (R3/R0) between 100% and 20%)
- IC50 [1]: 10 to 100 µM

SMILES: OCCCc1cc2c(Oc3ccccc3)c(Cl)ccc2[nH]1 [I-248, 3-(5-chloro-4-phenoxy-1H-indol-2-yl)propan-1-ol]
- ASMS (R3/R0) (Rheb): C (an affinity (R3/R0)<20%)
- IC50 [1]: 10 to 100 µM

SMILES: O=C(O)c1cc2c(Sc3ccc(F)c(F)c3)cc(Cl)cc2[nH]1 [I-155, 6-chloro-4-(3,4-difluorophenylthio)-1H-indole-2-carboxylic acid]
- ASMS (R3/R0) (Rheb): B (an affinity (R3/R0) between 100% and 20%)
- IC50 [1]: 10 to 100 µM

SMILES: O=C(O)c1cc2c(-c3cc(Cl)cc(Cl)c3)cc(Cl)cc2[nH]1 [I-49, 6-chloro-4-(3,5-dichlorophenyl)-1H-indole-2-carboxylic acid]
- ASMS (R3/R0) (Rheb): B (an affinity (R3/R0) between 100% and 20%)
- IC50 [1]: < 10 µM

SMILES: Clc1ccc(Oc2cccc3[nH]ccc23)cc1 [I-283, 4-(4-chlorophenoxy)-1H-indole]
- ASMS (R3/R0) (Rheb): C (an affinity (R3/R0)<20%)
- IC50 [1]: 100 to 300 µM

SMILES: CN1CCN(c2ccc(NC(=O)c3cc4c(Sc5ccc(Cl)cc5Cl)cc(Cl)cc4[nH]3)cc2Cl)CC1 [I-111, 6-chloro-N-(3-chloro-4-(4-methylpiperazin-1-yl)phenyl)-4-(2,4-dichlorophenylthio)-1H-indole-2-carboxamide]
- ASMS (R3/R0) (Rheb): C (an affinity (R3/R0)<20%)
- IC50 [1]: < 10 µM

SMILES: O=C(O)c1ccc(CCn2c(-c3ccnc4[nH]ccc34)nc3cc(Cl)c(Cl)cc32)cc1 [I-331, 4-(2-(5,6-dichloro-2-(1H-pyrrolo[2,3-b]pyridin-4-yl)-1H-benzo[d]imidazol-1-yl)ethyl)benzoic acid]
- ASMS (R3/R0) (Rheb): B (an affinity (R3/R0) between 100% and 20%)
- IC50 [1]: 10 to 100 µM

SMILES: OCc1cc2cc(SCc3ccc(Cl)cc3)c(Cl)cc2[nH]1 [I-76, (6-chloro-5-(4-chlorobenzylthio)-1H-indol-2-yl)methanol]
- ASMS (R3/R0) (Rheb): B (an affinity (R3/R0) between 100% and 20%)
- IC50 [1]: 10 to 100 µM

SMILES: NCCn1c(CO)cc2c(Oc3ccccc3)cc(Cl)cc21 [I-168]
- ASMS (R3/R0) (Rheb): C (an affinity (R3/R0)<20%)
- IC50 [1]: > 100 µM

SMILES: CC(c1ccc(C(=O)N(C)C)cc1)n1c(C(=O)O)cc2c(Br)cc(Sc3ccc(Cl)c(Cl)c3)cc21 (stereo not shown) [I-5, 4-bromo-6-(3,4-dichlorophenylthio)-1-(1-(4-(dimethylcarbamoyl)phenyl)ethyl)-1H-indole-2-carboxylic acid]
- ASMS (R3/R0) (Rheb): B (an affinity (R3/R0) between 100% and 20%)
- IC50 [1]: < 10 µM

SMILES: Clc1ccc(Sc2cc(Cl)cc3[nH]c(-c4ccnc5[nH]ccc45)nc23)cc1 [I-326, 6-chloro-4-(4-chlorophenylthio)-2-(1H-pyrrolo[2,3-b]pyridin-4-yl)-1H-benzo[d]imidazole]
- ASMS (R3/R0) (Rheb): B (an affinity (R3/R0) between 100% and 20%)
- IC50 [1]: 10 to 100 µM

SMILES: CN1CCC(CCNC(=O)c2cc3c(-c4cc(Cl)cc(Cl)c4)cc(Cl)cc3[nH]2)CC1 [I-31]
- ASMS (R3/R0) (Rheb): A (an affinity (R3/R0)>100%)
- IC50 [1]: > 100 µM

SMILES: C=Cc1nc2c(OCC3CCCCC3)c(Cl)c(Cl)cc2[nH]1 [I-345]
- ASMS (R3/R0) (Rheb): B (an affinity (R3/R0) between 100% and 20%)
- IC50 [1]: > 100 µM

SMILES: O=C(O)c1ccc(Cn2ccc3c(Br)cc(Oc4ccccc4)cc32)cc1 [I-164, 4-((4-bromo-6-phenoxy-1H-indol-1-yl)methyl)benzoic acid]
- ASMS (R3/R0) (Rheb): B (an affinity (R3/R0) between 100% and 20%)
- IC50 [1]: 10 to 100 µM
